According to US10092566B2, “Composition for controlling a gut immunity and use thereof” (SEOUL NATIONAL UNIVERSITY R&DB FOUNDATION, priority 2013, dated 2018):

Test system: DUOX
Assay: In vivo ROS detection in gut epithelia (HOCl-specific R19S staining, ratio of ROS-positive guts)
Set-up: species or system Drosophila
From the text: R19S, a recently developed HOCl-specific rhodamine-based dye, was used in this experiment (Chen et al., Chem Commun (Camb) 47, pp. 4373-4375, 2011). R19S was purchased from Futurechem (Seoul, South Korea). […]
Furthermore, to measure the basal level of ROS in germ-free animals, Drosophila monoassociated with each bacterium (C. intestini, A. pomorum, L. plantarum, G. morbifer, G. morbifer-carA::Tn5, L. brevis, or L. brevisΔcarA) were experimented with as disclosed above. A 5% sucrose solution containing 10 μM of R19S was orally administered to the monoassociated Drosophila (13 days old) for 90 minutes.
Following the R19S ingestion, the midguts were dissected and fixed with 4% formaldehyde. The level of HOCl (ROS level) was visualized by LSM700 confocal microscopy (Carl Zeiss).
For all of the experiments, R19S-positive guts in each animal group (n=approx. 20) were measured by each independent experiment, and data was indicated by at least three repeated and independent experiments. The number of R19S-positive guts in regard to the total numbers of gut samples was indicated as the ratio of ROS-positive guts.

Row | SMILES | ROS-inducing ability / DUOX activation (nucleobases and pyrimidine analogs, 20 nM each, ingestion for 15 minutes) | DUOX-dependent ROS after coingestion of uracil with N-acetylcysteine (uracil 20 nM, 1.5 hours, plus N-acetylcysteine)
1 | O=c1[nH]cc(F)c(=O)[nH]1 [5-fluorouracil, reference compound] | only uracil is capable of activating DUOX | 
2 | CC(=O)N[C@@H](CS)C(=O)O [N-acetylcysteine, reference compound] |  | could not be detected
